“And” between values parts separate entries of the source, which are not always exact repeats. Identical values can stand only once. Inconclusive results and toxic doses are left out. No stated cut-off is given here; in the data, active means T/C of 150% or more; inactive means T/C below 125%.
Test system: L1210 leukemia ip in BDF1 mice, survival T/C
Assay: NCI In Vivo Anticancer Drug Screen. Data for tumor model L1210 Leukemia (intraperitoneal) in B6D2F1 (BDF1) mice
Conditions: endpoint: mean survival time, higher = longer survival
In short: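 Read-out is survival time, reported as the treated-group measurement over the vehicle-control measurement.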

[1] = dose: 25.0 mg/kg/injection, schedule: Q01DX009 (ip), vehicle: saline with Tween-80
[2] = dose: 50.0 mg/kg/injection, schedule: Q01DX009 (ip), vehicle: saline with Tween-80
[3] = dose: 100.0 mg/kg/injection, schedule: Q04DX003 (ip), vehicle: Klucel (hydroxypropylcellulose) (HPC)
[4] = dose: 200.0 mg/kg/injection, schedule: Q04DX003 (ip), vehicle: Klucel (hydroxypropylcellulose) (HPC)
[5] = dose: 400.0 mg/kg/injection, schedule: Q04DX003 (ip), vehicle: Klucel (hydroxypropylcellulose) (HPC)
[6] = dose: 25.0 mg/kg/injection, schedule: Q01DX009 (ip), vehicle: saline
[7] = dose: 50.0 mg/kg/injection, schedule: Q01DX009 (ip), vehicle: saline
[8] = dose: 100.0 mg/kg/injection, schedule: Q01DX009 (ip), vehicle: saline
[9] = dose: 100.0 mg/kg/injection, schedule: Q04DX002 (ip), vehicle: Klucel (hydroxypropylcellulose) (HPC)
[10] = dose: 12.5 mg/kg/injection, schedule: Q04DX002 (ip), vehicle: Klucel (hydroxypropylcellulose) (HPC)
[11] = dose: 200.0 mg/kg/injection, schedule: Q04DX002 (ip), vehicle: Klucel (hydroxypropylcellulose) (HPC)
[12] = dose: 100.0 mg/kg/injection, schedule: Q04DX003 (ip), vehicle: saline with Tween-80
[13] = dose: 200.0 mg/kg/injection, schedule: Q04DX003 (ip), vehicle: saline with Tween-80
[14] = dose: 400.0 mg/kg/injection, schedule: Q04DX003 (ip), vehicle: saline with Tween-80

Measured: T/C

S=C(Nc1ccccc1)Nc1ccc(Cl)c(Cl)c1
inactive: dose: 12.5 mg/kg/injection, schedule: Q01DX009 (ip), vehicle: saline with Tween-80 95 % of control | [1] 92 % of control and 90 % of control | [2] 105 % of control | dose: 100.0 mg/kg/injection, schedule: Q01DX009 (ip), vehicle: saline with Tween-80 87 % of control and 91 % of control

CN(C)c1ccc(I)cc1
inactive: dose: 25.0 mg/kg/injection, schedule: Q01DX001 (ip), vehicle: saline with Tween-80 107 % of control | dose: 50.0 mg/kg/injection, schedule: Q01DX001 (ip), vehicle: saline with Tween-80 110 % of control

CCCCCCCCCCCCCCCCCCSc1ccc2ccccc2c1
inactive: [3] 105 % of control | [4] 94 % of control | [5] 91 % of control

Nc1ccc(C(=O)OCCCN2CCCCC2)cc1
inactive: dose: 12.5 mg/kg/injection, schedule: Q01DX009 (ip), vehicle: saline 101 % of control | [6] 97 % of control | [7] 101 % of control

CCN(CC)CC(=O)NCC(CCN1CCCCC1)(CC(C)C)c1cccc2ccccc12 (configuration not stated)
inactive: [6] 102 % of control | [7] 105 % of control | [8] 114 % of control

Cc1ccccc1NC(=O)Nc1ccccc1F
inactive: dose: 100.0 mg/kg/injection, schedule: Q01DX009 (ip), vehicle: Klucel (hydroxypropylcellulose) (HPC) 99 % of control | [3] 96 % of control | dose: 200.0 mg/kg/injection, schedule: Q01DX009 (ip), vehicle: Klucel (hydroxypropylcellulose) (HPC) 99 % of control | [4] 103 % of control | dose: 400.0 mg/kg/injection, schedule: Q01DX009 (ip), vehicle: Klucel (hydroxypropylcellulose) (HPC) 104 % of control | [5] 110 % of control

CCOC(=O)CCN(C)CCC(=O)OCC
inactive: dose: 12.5 mg/kg/injection, schedule: Q01DX009 (ip), vehicle: water 101 % of control | dose: 25.0 mg/kg/injection, schedule: Q01DX009 (ip), vehicle: water 103 % of control | dose: 25.0 mg/kg/injection, schedule: Q04DX003 (ip), vehicle: water 101 % of control | dose: 50.0 mg/kg/injection, schedule: Q01DX009 (ip), vehicle: water 105 % of control | dose: 50.0 mg/kg/injection, schedule: Q04DX003 (ip), vehicle: water 101 % of control | dose: 100.0 mg/kg/injection, schedule: Q04DX003 (ip), vehicle: water 101 % of control

CC1CC(=O)NC(=O)N1Cc1ccccc1 (configuration not stated)
inactive: dose: 100.0 mg/kg/injection, schedule: Q01DX Z (ip), vehicle: methylcellulose (MC) 91 % of control | dose: 200.0 mg/kg/injection, schedule: Q01DX Z (ip), vehicle: methylcellulose (MC) 92 % of control

O=P(c1ccccc1)(N1CCOCC1)N1CCOCC1
inactive: dose: 75.0 mg/kg/injection, schedule: Q04DX003 (ip), vehicle: saline 94 % of control | dose: 150.0 mg/kg/injection, schedule: Q04DX003 (ip), vehicle: saline 104 % of control | dose: 300.0 mg/kg/injection, schedule: Q04DX003 (ip), vehicle: saline 110 % of control

NC(CSCC(N)=NCC1C2CC3CC(C2)CC1C3)=NCC1C2CC3CC(C2)CC1C3 (configuration not stated)
inactive: [9] 96 % of control

C[CH2][Pb]([CH2]C)([CH2]C)[O]C(=O)CBr
inactive: dose: 0.78 mg/kg/injection, schedule: Q01DX009 (ip), vehicle: Klucel (hydroxypropylcellulose) (HPC) 92 % of control | dose: 1.56 mg/kg/injection, schedule: Q01DX009 (ip), vehicle: Klucel (hydroxypropylcellulose) (HPC) 103 % of control | dose: 3.12 mg/kg/injection, schedule: Q01DX009 (ip), vehicle: Klucel (hydroxypropylcellulose) (HPC) 98 % of control and 92 % of control | dose: 3.12 mg/kg/injection, schedule: Q04DX002 (ip), vehicle: Klucel (hydroxypropylcellulose) (HPC) 93 % of control | dose: 6.25 mg/kg/injection, schedule: Q04DX002 (ip), vehicle: Klucel (hydroxypropylcellulose) (HPC) 90 % of control | [10] 98 % of control and 106 % of control

CN(C)C(=S)Oc1c(Cl)cc(S(=O)(=O)F)cc1Cl
inactive: [10] 98 % of control | dose: 25.0 mg/kg/injection, schedule: Q04DX002 (ip), vehicle: Klucel (hydroxypropylcellulose) (HPC) 105 % of control | dose: 50.0 mg/kg/injection, schedule: Q04DX002 (ip), vehicle: Klucel (hydroxypropylcellulose) (HPC) 109 % of control | [9] 94 % of control | [11] 100 % of control

CCNC(=O)Nc1ccc(C(=O)O)c(O)c1 (tested in a mixture with another compound)
inactive: [12] 97 % of control | dose: 100.0 mg/kg/injection, schedule: Q04DX003 (sc), vehicle: olive oil, sesame oil, peanut oil 97 % of control | [13] 92 % of control | dose: 200.0 mg/kg/injection, schedule: Q04DX003 (sc), vehicle: olive oil, sesame oil, peanut oil 102 % of control | [14] 102 % of control | dose: 400.0 mg/kg/injection, schedule: Q04DX003 (sc), vehicle: olive oil, sesame oil, peanut oil 97 % of control

CCN(CC)CCN(C)c1cc(C)nc(/N=C(\N)Nc2ccc(Cl)c(Cl)c2)n1
inactive: dose: 18.75 mg/kg/injection, schedule: Q01DX009 (ip), vehicle: saline with Tween-80 92 % of control | dose: 37.5 mg/kg/injection, schedule: Q01DX009 (ip), vehicle: saline with Tween-80 103 % of control | dose: 37.5 mg/kg/injection, schedule: Q04DX003 (ip), vehicle: saline with Tween-80 93 % of control | dose: 75.0 mg/kg/injection, schedule: Q01DX009 (ip), vehicle: saline with Tween-80 92 % of control | dose: 75.0 mg/kg/injection, schedule: Q04DX003 (ip), vehicle: saline with Tween-80 97 % of control

CC(=O)[O][Hg][c]1cc2c(cc1O)Cc1cc([N+](=O)[O-])ccc1-2
inactive: dose: 12.5 mg/kg/injection, schedule: Q01DX001 (ip), vehicle: carboxymethylcellulose (CMC) 105 % of control | dose: 25.0 mg/kg/injection, schedule: Q01DX001 (ip), vehicle: carboxymethylcellulose (CMC) 100 % of control | dose: 50.0 mg/kg/injection, schedule: Q01DX001 (ip), vehicle: carboxymethylcellulose (CMC) 97 % of control

C[N+](C)(C)CCCNC(=O)Nc1ccc(Cl)cc1
inactive: dose: 3.13 mg/kg/injection, schedule: Q04DX002 (ip), vehicle: saline 102 % of control | dose: 6.25 mg/kg/injection, schedule: Q04DX002 (ip), vehicle: saline 117 % of control | dose: 12.5 mg/kg/injection, schedule: Q04DX002 (ip), vehicle: saline 106 % of control

O=c1cc(COc2ccccc2Cl)[nH]c(=O)[nH]1
inactive: [12] 95 % of control | [13] 95 % of control | [14] 95 % of control

CCCC/C=C/CO
inactive: [1] 97 % of control | [2] 97 % of control and 100 % of control | dose: 200.0 mg/kg/injection, schedule: Q01DX009 (ip), vehicle: saline with Tween-80 97 % of control and 100 % of control

Cc1cc([N+](=O)[O-])c(C)cc1NC(=O)c1ccccc1
inactive: dose: 100.0 mg/kg/injection, schedule: Q01DX001 (ip), vehicle: carboxymethylcellulose (CMC) 91 % of control | dose: 200.0 mg/kg/injection, schedule: Q01DX001 (ip), vehicle: carboxymethylcellulose (CMC) 92 % of control | dose: 400.0 mg/kg/injection, schedule: Q01DX001 (ip), vehicle: carboxymethylcellulose (CMC) 94 % of control

O=C1c2ccccc2C(=O)N1CC#CCN1C(=O)c2ccccc2C1=O
inactive: [9] 102 % of control | [11] 91 % of control | dose: 400.0 mg/kg/injection, schedule: Q04DX002 (ip), vehicle: Klucel (hydroxypropylcellulose) (HPC) 112 % of control

CCCC(=O)Nc1ccc(NS(C)(=O)=O)cc1OC
inactive: [8] 103 % of control | dose: 100.0 mg/kg/injection, schedule: Q04DX003 (ip), vehicle: saline 102 % of control | dose: 200.0 mg/kg/injection, schedule: Q01DX009 (ip), vehicle: saline 100 % of control | dose: 200.0 mg/kg/injection, schedule: Q04DX003 (ip), vehicle: saline 102 % of control | dose: 400.0 mg/kg/injection, schedule: Q01DX009 (ip), vehicle: saline 102 % of control | dose: 400.0 mg/kg/injection, schedule: Q04DX003 (ip), vehicle: saline 100 % of control

CCNS(=O)(=O)c1cccc(C(N)=S)c1
inactive: dose: 100.0 mg/kg/injection, schedule: Q01DX001 (ip), vehicle: gum acacia 103 % of control | dose: 200.0 mg/kg/injection, schedule: Q01DX001 (ip), vehicle: gum acacia 105 % of control | dose: 400.0 mg/kg/injection, schedule: Q01DX001 (ip), vehicle: gum acacia 106 % of control

Reference: PubChem BioAssay AID248 (DTP/NCI, 2004)
